Test results from patent publication US20240366594A1, “Small Molecule Inhibitors of Formation of Neutrophil-Derived Extracellular Traps (NETosis) and Uses Thereof” (The Brigham and Women's Hospital, Inc., priority 2021, published 2024).

Key:
mice challenged with LPS = test: In vivo LPS-induced septic shock; parameters: species or system mouse; details: for platelet counts in the blood: 2 h post LPS challenge, compared with LPS alone, FIGS. 4C, 8D; for pro-inflammatory cytokine production (serum, ELISA): FIGS. 4E-4G; for neutrophils levels (blood and peritoneal lavage): FIGS. 8A-8C; for release of NETs by neutrophils in the peritoneal lavage (CitH3-positive neutrophils): cytofluorimetry, FIG. 4D; for body temperature 2 h post challenge: ricolinostat 30 mg/kg/dose or GSK484 25 mg/kg/dose i.p., FIG. 4B
Protocol: FIGS. 4A-G. Class I/IIb HDAC inhibition protects against systemic inflammation • (A) Time line of drug treatment and LPS priming and challenge. Mice were intraperitoneally injected, or not, with two doses of ricolinostat or GSK484 and were then intraperitoneally administered with two doses of LPS (−5 h, 1 mg/kg and 0 h, 2 mg/kg) to induce lethal sepsis. Peritoneal lavage and blood were collected 2 h after the LPS challenge. • (B) Body temperature was measured 2 h post challenge. • (C) Concentration of platelets in the blood was measured by cytofluorimetry. • (D) NETosis was measured as neutrophils (Ly6G+/CD11b+) positive for citrullinated histone H3 staining in the peritoneal lavage. • (E-G) Serum cytokines were measured by ELISA. […] Statistics were calculated using one-way ANOVA (*p<0.05; ** p<0.01; *** p<0.001; ****p<0.0001; n.s., not significant). n=15 for each group except the GSK484-treated group (n=10). Gray stars represent comparison of all experimental groups with the saline-treated healthy control. Black stars represent comparison of drug-treated groups with LPS-stimulated mice without drug treatment. Violin plots represent median (dashed line) with quartiles (dotted line). See also FIGS. 8A-F.
FIGS. 8A-F. Class I/IIb HDAC inhibition protects against systemic inflammation. • A-C) Neutrophils numbers and percentage were calculated in blood (A, B) and peritoneal lavage (C) of mice challenged, or not, with LPS. Saline group represent healthy mice. NT group represent mice that were challenged with LPS without receiving any drug. Ricolinostat (30 mg/kg/dose) or GSK484 (25 mg/kg/dose) were administered intraperitoneally at day −1, and 2 hour prior LPS priming. • D) Concentration of platelets in the blood was assessed by cytofluorimetry 2 hours post LPS-challenge. • E, F) Absolute amounts of serum cytokines were measured by ELISA. Violin plots represent median (dashed line) with quartiles (dotted line). Statistics were calculated using One-way ANOVA (*P<0.05; **P<0.01; ***P<0.001; ****P<0.0001; n.s., not significant). Grey stars represent comparison of all experimental groups with the saline control. Black stars represent comparison of drug treated groups with NT group.
Alternatively, neutrophils positive for citrullinated histone H3 were quantified by cytofluorimetry. Briefly, neutrophils from bronco-alveolar lavage fluid or peritoneal lavage fluid were stained for Ly6G, CD11b, CD45 and Zombie dye for 20 minutes at room temperature and then fixed with BD FACS Lysing Solution (cat #349202, BD Biosciences). Samples were washed twice with Intracellular Staining Permeabilization Wash buffer (cat #421002, Biolegend), incubated with anti-citrullinated histone H3 antibody (Abcam) 1 hour at room temperature and subsequently with PE anti-rabbit antibody for 30 minutes. Finally, samples were acquired with BD FACS Fortessa and neutrophils (CD45+/Ly6G+/CD11b+) positive for citrullinated histone H3 were quantified with FlowJo software.
8-week-old female mice were primed with 1 mg/kg of LPS intra peritoneum (i.p.) for 5 hours and then challenged with 2 mg/kg of LPS i.p. Ricolinostat was used at 30 mg/kg/dose, GSK484 at 25 mg/kg/dose and dexamethasone at 10 mg/kg/dose. Drugs were administered i.p. at day −1 and 2 hours prior priming. Blood samples were collected 2 hours post-challenge and cytokines were measured by ELISA. The platelet concentrations and neutrophils numbers in the blood and peritoneal cavity were calculated by cytofluorimetry using CountBright Absolute Cell Counting Beads (Thermo Scientific) according to the manufacturer's instructions. NETosis was measured as quantity of neutrophils in the peritoneal lavage positive for citrullinated histone H3 by cytofluorimetry.

human neutrophils = test: Immunoblot of PMA-treated human neutrophils (cell death markers, histone H3 acetylation and citrullination); assay type: cell-based; details: for PMA-induced gasdermin D (GSDMD) cleavage: 1 μM PMA; for PMA-induced gasdermin D (GSDMD) cleavage / activation of apoptosis or necroptosis: immunoblot FIG. 1E; for activation of apoptosis or necroptosis: PMA-treated cells exposed to drug; for H3 citrullination: compared with cells treated with PMA only

SMILES: COc1cc(C(=O)N2CC[C@@H](O)[C@@H](N)C2)cc2nc(-c3cc4ccccc4n3CC3CC3)n(C)c12 [GSK484]
- platelet counts in the blood (mice challenged with LPS): significantly higher
- pro-inflammatory cytokine production (serum, ELISA) (mice challenged with LPS): significantly decreased
- neutrophils levels (blood and peritoneal lavage) (mice challenged with LPS): increased neutrophils levels
- release of NETs by neutrophils in the peritoneal lavage (CitH3-positive neutrophils) (mice challenged with LPS): reduced release of NETs
- body temperature 2 h post challenge (mice challenged with LPS): no temperature loss
- PMA-induced gasdermin D (GSDMD) cleavage (human neutrophils): not altered
- activation of apoptosis or necroptosis (human neutrophils): excluded the activation of apoptosis or necroptosis
- H3 citrullination (human neutrophils; FIGS. 1E and 1F): completely abrogated

SMILES: O=C(CCCCCCNC(=O)c1cnc(N(c2ccccc2)c2ccccc2)nc1)NO [ricolinostat]
- platelet counts in the blood (mice challenged with LPS): significantly higher
- pro-inflammatory cytokine production (serum, ELISA) (mice challenged with LPS): significantly decreased
- neutrophils levels (blood and peritoneal lavage) (mice challenged with LPS): increased neutrophils levels
- release of NETs by neutrophils in the peritoneal lavage (CitH3-positive neutrophils) (mice challenged with LPS): reduced release of NETs
- pro-inflammatory cytokine production (serum, ELISA), comparison with dexamethasone (mice challenged with LPS; dexamethasone 10 mg/kg/dose, ricolinostat 30 mg/kg/dose, FIGS. 8E and 8F): efficiently reduced
- body temperature 2 h post challenge (mice challenged with LPS): no temperature loss
- PMA-induced gasdermin D (GSDMD) cleavage (human neutrophils): not altered
- activation of apoptosis or necroptosis (human neutrophils): excluded the activation of apoptosis or necroptosis
- H3 citrullination (human neutrophils; FIGS. 1E and 1F): significantly decreased
- histone H3 acetylation (human neutrophils; untreated as well as PMA-treated cells, FIGS. 1E and 1F): boosted
